Data from patent US7071349B2, “Purification method of N-(1(S)-ethoxycarbonyl-3-phenylpropyl)-L-alanine” (Kanaka Corporation, priority 2001, dated 2006).

Assay: Solubility of the pure product in mixed solvents of ethanol and water
Type: physicochemical
Procedure: One-hundred milliliters each of mixed solvents of ethanol and water in predetermined volume ratios were respectively adjusted to predetermined temperatures and each […] of N-(1(S)-ethoxycarbonyl-3-phenylpropyl)-L-alanine was no longer dissolved. After 30 minutes of standing, the supernatant was taken and the solubility (weight %) was determined according to the weight after concentration to dryness/the weight of the solution.

- Solubility (ethanol/water volume ratio 0.43, 10° C.): 1 weight %
- Solubility (ethanol/water volume ratio 0.43, 65° C.): 9 weight %
- Solubility (ethanol/water volume ratio 1.00, 10° C.): 2 weight %
- Solubility (ethanol/water volume ratio 1.00, 20° C.): 3 weight %
- Solubility (ethanol/water volume ratio 1.00, 65° C.): 21 weight %
- Solubility (ethanol/water volume ratio 2.33, 10° C.): 3 weight %
- Solubility (ethanol/water volume ratio 2.33, 20° C.): 4 weight %
- Solubility (ethanol/water volume ratio 2.33, 65° C.): 42 weight %
- Solubility (ethanol/water volume ratio 4.00, 10° C.): 4 weight %
- Solubility (ethanol/water volume ratio 4.00, 20° C.): 5 weight %
- Solubility (ethanol/water volume ratio 4.00, 65° C.): 45 weight %
- Solubility (ethanol/water volume ratio 5.67, 10° C.): 3 weight %
- Solubility (ethanol/water volume ratio 5.67, 20° C.): 5 weight %
- Solubility (ethanol/water volume ratio 5.67, 65° C.): 42 weight %
- Solubility (ethanol/water volume ratio 15.7, 10° C.): 3 weight %
- Solubility (ethanol/water volume ratio 15.7, 20° C.): 4 weight %
- Solubility (ethanol/water volume ratio 15.7, 65° C.): 26 weight %
- Solubility (ethanol/water volume ratio 249, 10° C.): 2 weight %
- Solubility (ethanol/water volume ratio 249, 20° C.): 3 weight %
- Solubility (ethanol/water volume ratio 249, 65° C.): 17 weight %
SMILES: CCOC(=O)[C@H](CCc1ccccc1)N[C@@H](C)C(=O)O [N-(1(S)-ethoxycarbonyl-3-phenylpropyl)-L-alanine]
